In patent US11339171B2, “MDM2 inhibitors” (Gan & Lee Pharmaceuticals, priority 2017, dated 2022):
Values joined by “and” are separate entries in the source; they are usually repeats but may differ in a detail not shown here. Identical values can stand only once. Like-named read-outs stand apart in the source and are kept apart here.

What was measured:
MDM2 = target: T1, MDM2 (Homo sapiens, UniProt Q00987); experiment: Inhibition test of MDM2-P53 (GST-MDM2, Biotin-P53, Anti-GST-Tb, SA-XL665); format: binding
T1 construct: made in house
Method in brief: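 Compounds, serially diluted 5-fold (twelve concentrations), were shaken for 90 min at 25° C with a mix of GST-MDM2 (4 nM final), Biotin-P53, anti-GST-Tb and SA-XL665. Buffer: 1×PBS, 0.1% BSA, 5 mM DTT, 1 mM AEBSF; signal read on a microplate reader.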

[1] = system: human osteosarcoma cell line SJSA-1; experiment: Inhibition of proliferation of human osteosarcoma cell line SJSA-1 (DAPI staining, In Cell Analyzer); details: Homo sapiens, SJSA-1, 72 h, read-out: IC50 (nM), inhibitory activity on proliferation of human osteosarcoma cell line SJSA-1, SJSA-1, incubated 72 h
[2] = Pharmacokinetics in ICR mice after intravenous and intragastric administration; format: in vivo; details: for MRT last: read-out: MRT(0-t); for MRT inf: read-out: MRT(0-∞); for Vd: read-out: Vz
Method in brief: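 Male ICR mice (6-9 weeks, 20-30 g, n=3 per route) were fasted overnight and dosed at 2 mg/kg i.v. or 5 mg/kg intragastrically in 5% DMSO/40% PEG400/55% (10% HP-β-CD in saline). Plasma levels were measured by LC-MS/MS after protein precipitation (LLOQ 1 ng/mL), and non-compartmental PK parameters were calculated.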

[3] = ICR mice, IV 2 mg/kg, individual animal, 2 mg/kg
[4] = ICR mice, PO 5 mg/kg, individual animal, 5 mg/kg
[5] = male, ICR, mouse, plasma, iv, 2 mg/kg, ICR mice, IV 2 mg/kg, individual animal
[6] = male, ICR, mouse, plasma, iv, 2 mg/kg, ICR mice, IV 2 mg/kg, individual animal, read-out: AUC(0-t)
[7] = male, ICR, mouse, plasma, iv, 2 mg/kg, ICR mice, IV 2 mg/kg, individual animal, read-out: Cmax
[8] = male, ICR, mouse, plasma, iv, 2 mg/kg, ICR mice, IV 2 mg/kg, individual animal, read-out: t1/2 (converted)
[9] = male, ICR, mouse, plasma, iv, 2 mg/kg, ICR mice, IV 2 mg/kg, mean of 3 animals
[10] = male, ICR, mouse, plasma, iv, 2 mg/kg, ICR mice, IV 2 mg/kg, mean of 3 animals, read-out: AUC(0-t)
[11] = male, ICR, mouse, plasma, iv, 2 mg/kg, ICR mice, IV 2 mg/kg, mean of 3 animals, read-out: Cmax
[12] = male, ICR, mouse, plasma, iv, 2 mg/kg, ICR mice, IV 2 mg/kg, mean of 3 animals, read-out: Tmax
[13] = male, ICR, mouse, plasma, iv, 2 mg/kg, ICR mice, IV 2 mg/kg, mean of 3 animals, read-out: t1/2 (converted)
[14] = male, ICR, mouse, plasma, po, 5 mg/kg, ICR mice, PO 5 mg/kg, individual animal
[15] = male, ICR, mouse, plasma, po, 5 mg/kg, ICR mice, PO 5 mg/kg, individual animal, read-out: Cmax
[16] = male, ICR, mouse, plasma, po, 5 mg/kg, ICR mice, PO 5 mg/kg, individual animal, read-out: Tmax
[17] = male, ICR, mouse, plasma, po, 5 mg/kg, ICR mice, PO 5 mg/kg, individual animal, read-out: t1/2 (converted)
[18] = male, ICR, mouse, plasma, po, 5 mg/kg, ICR mice, PO 5 mg/kg, mean of 3 animals
[19] = male, ICR, mouse, plasma, po, 5 mg/kg, ICR mice, PO 5 mg/kg, mean of 3 animals, read-out: AUC(0-t)
[20] = male, ICR, mouse, plasma, po, 5 mg/kg, ICR mice, PO 5 mg/kg, mean of 3 animals, read-out: Cmax
[21] = male, ICR, mouse, plasma, po, 5 mg/kg, ICR mice, PO 5 mg/kg, mean of 3 animals, read-out: Tmax
[22] = male, ICR, mouse, plasma, po, 5 mg/kg, ICR mice, PO 5 mg/kg, mean of 3 animals, read-out: t1/2 (converted)
[23] = male, ICR, mouse, plasma, po, 5 mg/kg, oral intragastric administration 5 mg/kg, read-out: AUC0-t
[24] = male, ICR, mouse, plasma, po, 5 mg/kg, oral intragastric administration 5 mg/kg, read-out: half-life (converted)
[25] = male, mouse, plasma, ICR mice, PO 5 mg/kg vs IV 2 mg/kg, from mean values, read-out: F* (bioavailability)

T1 sequence (Q00987 whole entry): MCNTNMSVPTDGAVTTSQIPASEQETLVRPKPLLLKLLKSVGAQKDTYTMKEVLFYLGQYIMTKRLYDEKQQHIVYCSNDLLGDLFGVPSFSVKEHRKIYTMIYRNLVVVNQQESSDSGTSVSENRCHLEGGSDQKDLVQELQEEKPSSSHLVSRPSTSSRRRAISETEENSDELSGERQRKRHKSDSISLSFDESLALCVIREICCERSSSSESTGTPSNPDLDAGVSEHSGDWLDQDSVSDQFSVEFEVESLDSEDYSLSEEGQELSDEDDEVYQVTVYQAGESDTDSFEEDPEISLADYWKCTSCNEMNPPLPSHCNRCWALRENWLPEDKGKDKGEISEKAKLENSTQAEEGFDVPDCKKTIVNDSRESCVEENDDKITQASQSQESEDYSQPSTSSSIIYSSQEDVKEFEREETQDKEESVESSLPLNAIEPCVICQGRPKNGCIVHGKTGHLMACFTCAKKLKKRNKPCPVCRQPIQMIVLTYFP

## COc1ncc(-c2nc3c(n2C(C)C)[C@@]2(C(=O)Nc4cc(Cl)ccc42)N(c2cc(F)cc(Cl)c2)C3=O)c(OC)n1 [Example S-45, (S)-6-chloro-5′-(3-chloro-5-fluorophenyl)-2′-(2,4-dimethoxypyrimidin-5-yl)-3′-isopropyl-3′H-spiro[dihydroindole-3,4′-pyrrolo[3,4-d]imidazole]-2,6′(5′H)-dione]
MDM2
  IC50: 1.72 nM
[1]
  IC50: 6.2 nM
[2]; [3]
  AUC(0-t): 1.86523 µg·h/mL and 2.07207 µg·h/mL
  AUC(0-∞): 1.89522 µg·h/mL and 2.10304 µg·h/mL
  CL: 1.055 L/h/kg and 0.951 L/h/kg
  Cmax: 0.77974 µg/mL and 0.88275 µg/mL
  MRT(0-t): 1.36 h
  MRT(0-∞): 1.44 h
  Tmax: 0.08 h and 0.25 h
  Vz: 1.54 L/kg and 1.37 L/kg
  t1/2: 1.01 h and 1.00 h
[2]; [4]
  AUC(0-t): 5.31563 µg·h/mL and 4.19604 µg·h/mL
  AUC(0-∞): 5.4714 µg·h/mL and 4.43171 µg·h/mL
  Cmax: 1.35563 µg/mL and 1.16932 µg/mL
  MRT(0-t): 2.53 h
  MRT(0-∞): 2.75 h
  Tmax: 1.00 h
  t1/2: 1.54 h and 1.87 h
[2]; [5]
  AUC(0-inf): 1.83 µg·h/mL
  clearance: 1.1 L/h/kg
  MRT last: 1.34 h
  MRT inf: 1.45 h
  Vd: 1.65 L/kg
[2]; [6]
  AUC(0-t): 1.79 µg·h/mL
[2]; [7]
  Cmax: 0.766 µg/mL
[2]; [8]
  half-life: 1.05 h
[2]; [9]
  AUC(0-inf): 1.94 µg·h/mL
  clearance: 1.03 L/h/kg
  MRT last: 1.35 h
  MRT inf: 1.45 h
  Vd: 1.52 L/kg
[2]; [10]
  AUC(0-t): 19.1 µg·h/mL
[2]; [11]
  Cmax: 0.809 µg/mL
[2]; [12]
  Tmax: 0.139 h
[2]; [13]
  half-life: 1.02 h
[2]; [14]
  AUC(0-inf): 6.35 µg·h/mL
  MRT last: 2.56 h
  MRT inf: 3.21 h
[2]; male, ICR, mouse, plasma, po, 5 mg/kg, ICR mice, PO 5 mg/kg, individual animal, read-out: AUC(0-t)
  AUC(0-t): 5.86 µg·h/mL
[2]; [15]
  Cmax: 1.59 µg/mL
[2]; [16]
  Tmax: 0.5 h
[2]; [17]
  half-life: 2.17 h
[2]; [18]
  AUC(0-inf): 5.42 µg·h/mL
  MRT last: 2.55 h
  MRT inf: 2.99 h
[2]; [19]
  AUC(0-t): 5.12 µg·h/mL
[2]; [20]
  Cmax: 1.37 µg/mL
[2]; [21]
  Tmax: 0.83 h
[2]; [22]
  half-life: 1.86 h
[2]; [23]
  AUC(0-t): 5.12 µg·h/mL
[2]; [24]
  half-life: 1.86 h
[2]; male, ICR, mouse, plasma, oral intragastric administration 5 mg/kg, read-out: bioavailability
  bioavailability: 107%
[2]; [25]
  bioavailability: 107%

## COc1ccc(-c2nc3c(n2C(C)C)[C@@]2(C(=O)Nc4cc(Cl)ccc42)N(c2cc(Cl)cnc2C)C3=O)c(OC)c1 [Example S-61, (S)-6-chloro-5′-(5-chloro-2-methylpyridin-3-yl)-2′-(2,4-dimethoxyphenyl)-3′-isopropyl-3′H-spiro[dihydroindole-3,4′-pyrrolo[3,4-d]imidazole]-2,6′(5′H)-dione]
MDM2
  IC50: 1.31 nM
[1]
  IC50: 5.5 nM
[2]; [3]
  AUC(0-t): 5.34676 µg·h/mL and 4.64074 µg·h/mL
  AUC(0-∞): 5.48362 µg·h/mL and 4.72428 µg·h/mL
  CL: 0.365 L/h/kg and 0.424 L/h/kg
  Cmax: 3.24496 µg/mL and 2.99443 µg/mL
  MRT(0-t): 1.26 h and 1.21 h
  MRT(0-∞): 1.42 h and 1.32 h
  Vz: 0.60 L/kg and 0.67 L/kg
  t1/2: 1.15 h and 1.09 h
[2]; [4]
  AUC(0-t): 2.46265 µg·h/mL and 4.9603 µg·h/mL and 3.16234 µg·h/mL
  AUC(0-∞): 5.5007 µg·h/mL and 3.53081 µg·h/mL
  Cmax: 2.4894 µg/mL and 1.77267 µg/mL
  MRT(0-t): 2.03 h and 1.91 h
  MRT(0-∞): 3.00 h
  Tmax: 0.50 h
  t1/2: 2.71 h and 2.98 h
[2]; [5]
  AUC(0-inf): 3.63 µg·h/mL
  clearance: 0.551 L/h/kg
  MRT last: 0.99 h
  MRT inf: 1.07 h
  Vd: 0.8 L/kg
[2]; [6]
  AUC(0-t): 3.58 µg·h/mL
[2]; [7]
  Cmax: 3.25 µg/mL
[2]; male, ICR, mouse, plasma, iv, 2 mg/kg, ICR mice, IV 2 mg/kg, individual animal, read-out: Tmax
  Tmax: 0.08 h
[2]; [8]
  half-life: 1 h
[2]; [9]
  AUC(0-inf): 4.61 µg·h/mL
  clearance: 0.446 L/h/kg
  MRT last: 1.15 h
  MRT inf: 1.27 h
  Vd: 0.69 L/kg
[2]; [10]
  AUC(0-t): 4.52 µg·h/mL
[2]; [11]
  Cmax: 3.16 µg/mL
[2]; [12]
  Tmax: 0.083 h
[2]; [13]
  half-life: 1.08 h
[2]; [14]
  AUC(0-inf): 2.77 µg·h/mL
  MRT last: 1.57 h
  MRT inf: 2.85 h
[2]; [15]
  Cmax: 2.43 µg/mL
[2]; [16]
  Tmax: 0.25 h
[2]; [17]
  half-life: 3.58 h
[2]; [18]
  AUC(0-inf): 3.93 µg·h/mL
  MRT last: 1.84 h
  MRT inf: 2.95 h
[2]; [19]
  AUC(0-t): 3.53 µg·h/mL
[2]; [20]
  Cmax: 2.23 µg/mL
[2]; [21]
  Tmax: 0.33 h
[2]; [22]
  half-life: 3.09 h
[2]; [23]
  AUC(0-t): 3.53 µg·h/mL
[2]; [24]
  half-life: 3.09 h
[2]; [25]
  bioavailability: 31.2%
